According to patent US8741886B2, “Baclofen and acamprosate based therapy of neurological disorders” (Pharnext, priority 2011, dated 2014):

Experiments:
[1] = test system: mice injected i.c.v. with Aβ25-35 peptide; assay: Spontaneous alternation, Y-maze test, after i.c.v. Aβ25-35; type: in vivo; conditions: Acamprosate 32 μg/kg/day, Baclofen 480 μg/kg/day
Source text: The Y-maze is made of grey polyvinylchloride. Each arm is 40 cm long, 13 cm high, 3 cm wide at the bottom, 10 cm wide at the top, and converging at an equal angle. […] An alternation is defined as entries into all three arms on consecutive occasions.

[2] = test system: rat primary cortical cells; assay: Toxicity of human Aβ1-42 peptide on primary cortical neuron cells: LDH release; type: cell-based; conditions: for protection of neurons from amyloid injury: 1 h pre-treatment, Estradiol 150 nM or BDNF 50 ng/mL
Protocol: Rat cortical neurons were cultured as described by Singer et al. (47). Briefly pregnant female rats of 15 days gestation were killed by cervical dislocation (Rats Wistar) and the foetuses were removed from the uterus. The cortex was removed and placed in ice-cold medium of Leibovitz (L15) containing 2% of Penicillin 10.000 U/ml and Streptomycin 10 mg/ml and 1% of bovine serum albumin (BSA). Cortexes were dissociated by trypsin for 20 min at 37° C. (0.05%). The reaction was stopped by the addition of Dulbecco's modified Eagle's medium (DMEM) containing DNasel grade II and 10% of foetal calf serum (FCS). Cells were then mechanically dissociated by 3 serial passages through a 10 ml pipette and centrifuged at 515×g for 10 min at +4° C. The supernatant was discarded and the pellet of cells was re-suspended in a defined culture medium consisting of Neurobasal supplemented with B27 (2%), L-glutamine (0.2 mM), 2% of PS solution and 10 ng/ml of BDNF. Viable cells were counted in a Neubauer cytometer using the trypan blue exclusion test. The cells were seeded at a density of 30 000 cells/well in 96 well-plates (wells were pre-coated with poly-L-lysine (10 μg/ml)) and were cultured at +37° C. in a humidified air (95%)/CO2 (5%) atmosphere.
Briefly, Aβ1-42 peptide was reconstituted in define culture medium at 40 μM (mother solution) and was slowly shaken at +37° C. for 3 days in dark. The control medium was prepared in the same conditions.
After 10 days of neuron culture, test compounds were solved in culture medium (+0.1% DMSO) and then pre-incubated with neurons for 1 hour before the Aβ1-42 application (in a final volume per culture well of 100 μl). One hour after test compound(s) incubation, 100 μl of Aβ1-42 peptide was added to a final concentration of 10 μM diluted in presence of drug(s), in order to avoid further test compound(s) dilutions. Cortical neurons were intoxicated for 24 hours. Three separate cultures were performed per condition, 6 wells per condition.
BDNF (50 ng/ml) and Estradiol-β (150 nM) were used as positive control and reference compounds respectively. Three separate cultures will be performed per condition, 12 wells per condition.
Estradiol-β at 150 nM was used as a positive control (FIG. 4).
Estradiol-β was solved in culture medium and pre-incubated for 1 h before the amyloid-β1-42 application.
The following conditions were assessed: • CONTROL PLAQUE: 12 wells/condition • Negative Control: medium alone+0.1% DMSO • Intoxication: amyloid-β1-42 (10 μM) for 24 h • Reference compound: Estradiol (150 nM) 1 hr. • DRUG PLATE: 6 wells/condition • Negative Control: medium alone+0.1% DMSO • Intoxication: amyloid-β1-42 (10 μM) for 24 h • Test compound(s): test compound(s)—1 hr followed by amyloid-β1-42 (10 μM) for 24 h Lactate Dehydrogenase (LDH) Activity Assay
24 hours after intoxication, the supernatant was taken off and analyzed with Cytotoxicity Detection Kit (LDH, Roche Applied Science, ref: 11644793001, batch: 11800300). This colorimetric assay for the quantification of cell toxicity is based on the measurement of lactate dehydrogenase (LDH) activity released from the cytosol of dying cells into the supernatant.
Data were expressed in percentage of control conditions (no intoxication, no amyloid=100%) in order to express the amyloid injury. All values were expressed as mean+/−SEM (s.e.mean) of the 3 cultures (n=6 wells per condition). Statistic analyses were done on the different conditions (ONE-WAY ANOVA followed by the Dunnett's test when it was allowed, Statview software version 5.0).

COc1cc2c(cc1OC)C(=O)C(CC1CCN(Cc3ccccc3)CC1)C2 (centres unmarked) [Donepezil]
protection of percentage of alternation (Y-maze), low doses with Donepezil ([1]; Donepezil 0.25 mg/kg/day): 32%
effect on percentage of alternation (Y-maze), low doses (in words) ([1]; drugs alone: Donepezil 0.25 mg/kg/day): no significant effect

C[C@]12CC[C@@H]3c4ccc(O)cc4CC[C@H]3[C@@H]1CC[C@@H]2O [Estradiol]
protection of neurons from amyloid injury [2]: −94%

NCCCS(=O)(=O)O [Homotaurine]
prevention of Aβ1-42 intoxication by pre-treatment ([2]; 8 nM): 99%

B1: BDNF: BDNF (50 ng/ml) used as positive control for neuroprotection (protein, UniProt P23560 19-247, looked up)
Neurotrophic factor BDNF …: APMKEANIRGQGGLAYPGVRTHGTLESVNGPKAGSRGLTSLADTFEHVIEELLDEDQKVRPNEENNKDADLYTSRVMLSSQVPLEPPLLFLLEEYKNYLDAANMSMRVRRHSDPARRGELSVCDSISEWVTAADKKTAVDMSGGTVTVLEKVPVSKGQLKQYFYETKCNPMGYTKEGCRGIDKRHWNSQCRTTQSYVRALTMDSKKRIGWRFIRIDTSCVCTLTIKRGR
protection of neurons from amyloid injury [2]: −94%
